Experimental data from PMC6346587, “Glucose 6-phosphate dehydrogenase 6-phosphogluconolactonase: characterization of the Plasmodium vivax enzyme and inhibitor studies” (Malaria Journal, 2019).

Key:
[1] = biological target: T1, PfGluPho (Plasmodium falciparum, UniProt Q8IKU0); assay: PfGluPho G6PD activity inhibition assay; assay type: biochemical
T1 construct: made in house
T1 sequence (Q8IKU0 1-910): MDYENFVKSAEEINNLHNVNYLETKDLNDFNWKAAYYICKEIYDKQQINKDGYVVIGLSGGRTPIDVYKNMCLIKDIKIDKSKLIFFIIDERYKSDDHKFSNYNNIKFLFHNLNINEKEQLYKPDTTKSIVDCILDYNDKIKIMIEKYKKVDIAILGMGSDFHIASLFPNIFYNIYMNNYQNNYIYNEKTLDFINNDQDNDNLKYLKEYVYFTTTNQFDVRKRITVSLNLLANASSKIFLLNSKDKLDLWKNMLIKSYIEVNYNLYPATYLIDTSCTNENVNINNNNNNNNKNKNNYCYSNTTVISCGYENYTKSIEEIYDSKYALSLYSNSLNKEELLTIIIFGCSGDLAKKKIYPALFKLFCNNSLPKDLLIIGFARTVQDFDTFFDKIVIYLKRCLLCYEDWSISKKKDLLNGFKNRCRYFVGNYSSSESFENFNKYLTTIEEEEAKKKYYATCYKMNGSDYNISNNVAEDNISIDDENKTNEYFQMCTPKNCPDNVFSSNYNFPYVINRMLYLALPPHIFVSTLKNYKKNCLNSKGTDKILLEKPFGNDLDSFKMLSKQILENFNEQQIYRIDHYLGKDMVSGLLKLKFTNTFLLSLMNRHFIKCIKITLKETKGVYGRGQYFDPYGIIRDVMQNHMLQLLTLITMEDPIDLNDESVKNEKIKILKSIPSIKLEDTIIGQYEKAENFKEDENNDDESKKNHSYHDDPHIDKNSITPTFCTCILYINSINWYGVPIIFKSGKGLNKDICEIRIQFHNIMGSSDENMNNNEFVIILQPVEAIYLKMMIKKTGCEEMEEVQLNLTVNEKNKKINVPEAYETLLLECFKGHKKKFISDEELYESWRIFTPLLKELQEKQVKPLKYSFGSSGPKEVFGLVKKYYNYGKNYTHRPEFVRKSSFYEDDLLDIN
Method: To identify potential inhibitors of PvG6PD, compounds with already known effects on PfGluPho (ellagic acid and derivatives, ML304) were tested. Additionally, several compound libraries of the Helmholtz Center for Infection Research, Brunswick, were screened against PfGluPho using the high-throughput-compatible assay systems described in Preuss et al.. […] Based on structure-activity relationship studies, a set of new potential G6PD inhibitors (Fig. 8) was then synthesized and assessed. First, the IC50 values of the compounds were determined, followed by mechanistic characterization of the mode of action. To test for selectivity of the compounds, the IC50 values of the compounds on PvG6PD, PfGluPho, and hG6PD were determined in parallel.
All measurements were performed in 96-well plates, half area (Greiner Bio-One, Frickenhausen, Germany) using a Tecan Infinite M200 plate reader (Maennedorf, Switzerland). The compounds were dissolved in 100% DMSO and afterwards diluted in assay buffer to the required concentrations. Different compound concentrations were added to a mixture of enzyme and NADP^+ in assay buffer. Concentrations of substrates differed depending on the enzyme; an overview is given in the Additional file 4. The reaction was started by adding G6P, and the increase of NADPH was monitored by measuring the absorbance at 340 nm. To increase the sensitivity of the assay, some measurements were reproduced, detecting the fluorescence of NADPH at ex340/em460. […] A negative control containing no compound was defined as 0% inhibition; a positive control lacking the substrate G6P was defined as 100% inhibition. For evaluations using GraphPad Prism and Microsoft Excel, only a linear increase in absorbance/fluorescence was considered. For the mechanistic characterization of the compounds, either NADP^+ or G6P were titrated at different compound concentrations around the IC50, while keeping the second substrate in saturation. The initial slope was plotted as Michaelis–Menten curves and Lineweaver–Burk plots using GraphPad Prism; KM values and Vmax were calculated with GraphPad Prism software.

[2] = biological target: T1, PfGluPho; conditions: ML304; read-out: IC50 on PfGluPho; cited from earlier work
[3] = system: P. falciparum NF54[hGrx1-roGFP2] glutathione redox ratio; assay: Cytosolic glutathione redox sensor hGrx1-roGFP2, fluorescence plate reader; assay type: cell-based, Plasmodium falciparum
Method: NF54^[hGrx1–roGFP2] parasites were washed and resuspended after incubation in pre-warmed Ringer’s solution to a concentration of […]. 10 µL of cells (1 × 10^6 iRBCs) were transferred to each well of a 384-well plate (black, flat bottom, Greiner Bio-One, Frickenhausen, Germany) and were measured with the plate reader Clariostar (BMG Labtech, Ortenberg, Germany) with excitation wavelengths at 405 nm and 475 nm (emission 510 nm). The gain of the 405 nm and 475 nm excitation wavelengths was adjusted to match the full dynamic range of the hGrx1–roGFP2 redox sensor. The 405/475 nm ratio was then calculated. The graphs were plotted using the GraphPad Prism 5 software (San Diego, CA, USA). A one-way ANOVA test with 95% confidence intervals with the Dunnett’s multiple comparison test (GraphPad Prism 5.0) was applied for statistical analysis of significance (*p < 0.05; **p < 0.01; ***p < 0.001).
Recently, the cytosolic glutathione redox sensor was stably integrated into NF54-attB parasites. The direct response of NF54^[hGrx1–roGFP2] to mid- and long-term exposures were determined using the time-efficient plate reader (Clariostar). […] As depicted in Fig. 7, ML304 oxidized the cytosol, leading to an increase of the 405/488 nm ratio of the probe in a concentration-dependent manner with significant differences after a 24 h incubation.

## CCN1CCC[C@@H]1CNC(=O)c1ccc2c(c1)NC(=O)c1cccc(C)c1S2 [ML304]
[1]; G6P titrated
  Type of inhibition of PfGluPho towards G6P: competes with G6P
[1]; NADP+ titrated
  Type of inhibition of PfGluPho towards NADP+: non-competitive inhibitor
[1]; competes with G6P, read-out: Ki on PfGluPho towards G6P
  Ki: 230 ± 160 nM
[2]
  IC50: 190 nM
[3]; 8.88 µM, 24 h, ring stage, p < 0.01
  Increase of 405/475 nm fluorescence ratio: threefold
[3]; 4 h incubation, trophozoite stage, 1 to 100 times EC50
  Effect on fluorescence ratio: concentration-dependent increase in fluorescence ratio
